# PubChem BioAssay (NCI)
#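 48-hour exposure; five concentrations; linearly interpolated endpoints. Here, GI50 denotes the concentration required for 50% inhibition of growth. TGI is the concentration that stops growth completely.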
# Columns and labels:
# Test in all cases: DTP human tumour cell line panel, 48 h
# [1] = test system: SK-MEL-2 melanoma
# [2] = test system: KM12 colon
# [3] = test system: SR leukemia
# [4] = test system: ACHN renal
# [5] = test system: RPMI-8226 leukemia
# [6] = test system: TK-10 renal
# [7] = test system: T-47D breast
# [8] = test system: UO-31 renal
# [9] = test system: BT-549 breast
# [10] = test system: SK-OV-3 ovarian
# [11] = test system: A549 NSCLC
# [12] = test system: A498 renal
# [13] = test system: OVCAR-3 ovarian
# [14] = test system: UACC-257 melanoma
# [15] = test system: HCC-2998 colon
# [16] = test system: DU-145 prostate
# [17] = test system: 786-0 renal
# [18] = test system: COLO 205 colon
# [19] = test system: SW-620 colon
# [20] = test system: HOP-62 NSCLC
# [21] = test system: U251 CNS
# [22] = test system: HL-60(TB) leukemia
# [23] = test system: NCI-H23 lung
# [24] = test system: SK-MEL-28 melanoma
# [25] = test system: SN12C renal
# [26] = test system: M14 melanoma
# [27] = test system: NCI-H522 lung
# [28] = test system: OVCAR-4 ovarian
# [29] = test system: SF-539 CNS
# [30] = test system: MCF7 breast
# [31] = test system: SK-MEL-5 melanoma
# [32] = test system: SF-268 CNS
# [33] = test system: SF-295 CNS
# [34] = test system: MOLT-4 leukemia
# [35] = test system: MDA-MB-435
# [36] = test system: NCI-H460 lung
# [37] = test system: HS 578T breast
# [38] = test system: NCI-H226 lung
# [39] = test system: IGROV1 ovarian
# [40] = test system: PC-3 prostate
# [41] = test system: HOP-92 NSCLC
# [42] = test system: CCRF-CEM leukemia
# [43] = test system: SNB-19 CNS
# [44] = test system: SNB-75 CNS
# [45] = test system: UACC-62 melanoma
# [46] = test system: NCI/ADR-RES ovarian
# [47] = test system: HCT-116 colon
# [48] = test system: CAKI-1 renal
# [49] = test system: MDA-MB-231 breast
# [50] = test system: LOX IMVI melanoma
# [51] = test system: HCT-15 colon
# [52] = test system: HT29 colon
smiles,measurement,setting,value
COc1ccc2nc3cc(Cl)ccc3c(NCCCCCN3CCCCC3)c2c1,GI50,[1],2220 nM
same,TGI,[1],4040 nM
same,GI50,[2],57.6 nM
same,TGI,[2],2700 nM
same,GI50,[3],31.4 nM
same,TGI,[3],2130 nM
same,GI50,[4],44.7 nM
same,TGI,[4],2840 nM
same,GI50,[5],1950 nM
same,TGI,[5],6320 nM
same,GI50,[6],1570 nM
same,TGI,[6],3660 nM
same,GI50,[7],1940 nM
same,TGI,[7],4580 nM
same,GI50,[8],1430 nM
same,TGI,[8],3700 nM
same,GI50,[9],1720 nM
same,TGI,[9],3280 nM
same,GI50,[10],1260 nM
same,TGI,[10],3100 nM
same,GI50,[11],68 nM
same,TGI,[11],2730 nM
same,GI50,[12],11.4 nM
same,TGI,[12],1880 nM
same,GI50,[13],123 nM
same,TGI,[13],2240 nM
same,GI50,[14],1940 nM
same,TGI,[14],3770 nM
same,GI50,[15],67.3 nM
same,TGI,[15],2050 nM
same,GI50,[16],55.8 nM
same,TGI,[16],2460 nM
same,GI50,[17],56 nM
same,TGI,[17],1950 nM
same,GI50,[18],66.8 nM
same,TGI,[18],2320 nM
same,GI50,[19],36.9 nM
same,TGI,[19],2160 nM
same,GI50,[20],65.4 nM
same,TGI,[20],2630 nM
same,GI50,[21],1310 nM
same,TGI,[21],3100 nM
same,GI50,[22],1550 nM
same,TGI,[22],3540 nM
same,GI50,[23],1090 nM
same,TGI,[23],2850 nM
same,GI50,[24],1860 nM
same,TGI,[24],3670 nM
same,GI50,[25],76.3 nM
same,TGI,[25],4700 nM
same,GI50,[26],1650 nM
same,TGI,[26],3150 nM
same,GI50,[27],1440 nM
same,TGI,[27],3270 nM
same,GI50,[28],86 nM
same,TGI,[28],3010 nM
same,GI50,[29],55.9 nM
same,TGI,[29],2290 nM
same,GI50,[30],40.8 nM
same,TGI,[30],2130 nM
same,GI50,[31],1600 nM
same,TGI,[31],2960 nM
same,GI50,[32],1030 nM
same,TGI,[32],2880 nM
same,GI50,[33],50.2 nM
same,TGI,[33],1910 nM
same,GI50,[34],41.6 nM
same,TGI,[34],3120 nM
same,GI50,[35],1370 nM
same,TGI,[35],2730 nM
same,GI50,[36],36.1 nM
same,TGI,[36],1450 nM
same,GI50,[37],1820 nM
same,TGI,[37],4500 nM
same,GI50,[38],1100 nM
same,TGI,[38],3330 nM
same,GI50,[39],88.8 nM
same,TGI,[39],4100 nM
same,GI50,[40],1070 nM
same,TGI,[40],4510 nM
same,GI50,[41],1620 nM
same,TGI,[41],4100 nM
same,GI50,[42],73 nM
same,TGI,[42],6380 nM
same,GI50,[43],1140 nM
same,TGI,[43],5540 nM
same,GI50,[44],1270 nM
same,TGI,[44],2560 nM
same,GI50,[45],2070 nM
same,TGI,[45],3930 nM
same,GI50,[46],82.5 nM
same,TGI,[46],4240 nM
same,GI50,[47],43.5 nM
same,TGI,[47],1910 nM
same,GI50,[48],1330 nM
same,TGI,[48],4030 nM
same,GI50,[49],1010 nM
same,TGI,[49],3100 nM
same,GI50,[50],35.5 nM
same,TGI,[50],1440 nM
same,GI50,[51],41.2 nM
same,TGI,[51],1850 nM
same,GI50,[52],33.8 nM
same,TGI,[52],1590 nM
